Measured values taken from ChEMBL document CHEMBL5380808, “Design, Synthesis, and Biological Activity of Marinacarboline Analogues as STAT3 Pathway Inhibitors for Docetaxel-Resistant Triple-Negative Breast Cancer” (J Med Chem, 2023).

Columns and labels:
Type in all cases: functional
[1] = Induction of cell cycle arrest in docetaxel-resistant human MDA-MB-231-DTR cells assessed as accumulation at G2/M phase at 5 uM incubated for 24 hrs by PI staining based flow cytometry analysis (reference value: 13.54%)
[2] = Induction of cell cycle arrest in docetaxel-resistant human MDA-MB-231-DTR cells assessed as accumulation at subG1 phase at 5 uM incubated for 12 hrs by PI staining based flow cytometry analysis (reference value: 0.41%)
[3] = Induction of apoptosis in docetaxel-resistant human MDA-MB-231-DTR cells assessed as increase in total cell death at 2.5 uM incubated for 48 hrs by Annexin V-FITC and PI staining based flow cytometry

O=C(NCCc1c[nH]c2ccccc12)c1cc2c([nH]c3ccccc32)c(C(=O)c2ccc(Br)cc2)n1
Activity [1]: 21.18%
Activity [2]: 0.82%
Activity [3]: 5.55%
